We go through 18 compounds from patent EP0388528B1, “Carboximidamide derivatives” (KIRIN BEER KABUSHIKI KAISHA, priority 1988, dated 1990).

The test system of test [1] is isolated rat aortae. The test can be described thus: Vasorelaxing effect on the isolated rat aortae (Referential Example 2)-1). The settings on record: inhibition of contraction induced by 40 mM KCl, read-out: IC₅₀ Value. Here is the method: (§1) The compounds of the present invention were tested for their physiological activities by measuring the tension of isolated rat aortae isometrically.
Thoracic aortae obtained from male Wistar rats (weighing 250-350 g) were cut into ring segments about 3 mm long. The ring preparation was placed in an organ bath filled with 10 ml of Krebs-Ringer solution which was maintained at 37°C and gassed with 95% O₂ - 5% CO₂.
The preparation in the organ bath was allowed to equilibrate under resting tension 1 g. After equilibration period, the solution in the organ bath was replaced with an isotonic solution containing 40 mM KCl to contract the preparation.
(§2) After the contraction induced by KCl had reached plateau, the concentration-response relationship for the test compound was determined by means of cumulative addition.
(§3) The relaxation response of the test compounds was expressed as the percent inhibition of the contraction induced by KCl, and the IC₅₀ value, which is a concentration required for inhibiting the contraction induced by KCl to an extent of 50%, was calculated by the Probit method from the concentration-response curve.

Test [2] relates to spontaneous hypertensive rats (SHR). In words: Hypotensive effect on spontaneous hypertensive rats (intravenously) (Referential Example 1)-3). To be noted: Rattus norvegicus, iv, anesthetized SHR, dose descending mean blood pressure by 20%; read-out: ED₂₀ (mg/kg, i.v.). It counts as in vivo. Here is the method:
Rats were anesthetized with urethane-α-chloralose (1 g/kg - 25 mg/kg; intraperitoneally). Mean blood pressure was measured by a pressure transducer through a cannula inserted into the carotid artery. The compound was cumulatively administered every 30 minutes through the cannula inserted into the jagular vein. The change in blood pressure was expressed as percent of the blood pressure before the administration of the compound. And the ED₂₀ value, which was the dose required for descending blood pressure to an extent of 20%, was calculated from the dose-response curve.

For test [3], the system named is isolated rat aortae. In words: Vasorelaxing effect on the isolated rat aortae (Referential Example 1)-1). The settings on record: inhibition of contraction induced by 40 mM KCl. The protocol:
as §1
Thoracic aortae obtained from male Wistar rats (weighing 250-350 g) were cut into ring segments about 3 mm long. The ring preparation was placed in an organ bath filled with 10 ml of Krebs-Ringer solution that was maintained at 37°C and gassed with 95% O₂ - 5% CO₂.
The preparation in the organ bath was allowed to equilibrate under resting tension of 1 g. After equilibration period, the solution in the organ bath was replaced with an isotonic solution containing 40 mM KCl to contract the preparation.
as §2, §3

The next test has as its system potassium channel. The test can be described thus: Potassium channel activating effect (86Rb efflux from rat thoracic aorta). To be noted: compound 10⁻⁴ M for 8 minutes, percent of the efflux before application. The protocol: Male Wistar rats (weighing 250-350 g) were dehematized to death, and thoracic aortae were rapidly isolated. The aorta was opened along the longitudinal axis to prepare a flat sheet. The preparation was loaded with ⁸⁶Rb in the Krebs-Ringer solution which contained ⁸⁶Rb in the concentration of 10 µCi/ml and was gassed with 95% O₂ - 5% CO₂ at 37°C for 2 hours. The preparation was then transferred to a Krebs-Ringer solution not containing ⁸⁶Rb, and washed to remove excess radioactivity for 18 minutes by refreshing the solution every 2 minutes. Finally the preparation was placed into a Krebs-Ringer solution containing each compound (10⁻⁴ M) for 8 minutes.
The amount of ⁸⁶Rb efflux from the preparation in each period was determined with a γ-counter.
The increment in efflux rate during the application of the compound was expressed as percent of the efflux before the application of the compound.

The test system of test [4] is spontaneous hypertensive rats (SHR). In words: Hypotensive effect on spontaneous hypertensive rats (intravenously) (Referential Example 2)-2). It counts as in vivo. To be noted: Rattus norvegicus, iv, anesthetized SHR, dose decreasing mean blood pressure by 20%; read-out: ED₂₀ (mg/kg, i.v.). The protocol: Rats were anesthetized with urethane-α-chloralose (1 g/kg - 25 mg/kg; intraperitoneally). Mean blood pressure was measured by a pressure transducer through a cannula inserted into the carotid artery. The compound was cumulatively administered every 30 minutes through the cannula inserted into the jagular vein. The change in blood pressure was expressed as percent of the blood pressure before the administration of the compound. And the ED₂₀ value, which was the dose required for decreasing blood pressure to an extent of 20%, was calculated from the dose-response curve.

For a further test, the system named is isolated heart of rats. In words: Myocardiac injury induced by re-perfusion after ischemia (isolated heart of rats). The settings on record: 1×10⁻⁶ mole/min, after 30 minutes re-perfusion, mean ± SD. The protocol: The cardiac muscle protecting effect of the compound of the present invention was tested by using the isolated heart of rats [test compound: N-cyano-N′-(2-nitroxyethyl)-3-pyridinecarboximidamide (compound (13))]. The Langendorff's method was used in the same manner as in the aforementioned Referential Example 1)-6. The isolated heart was perfused with a perfusate for 30 minutes and then with a perfusate containing the test compound for 10 minutes, and perfusion was stopped so that the heart was in the so-called "ischemic state". Pacing was performed during the ischemia. […] Parameters of cardiac function after the onset of re-perfusion was monitored for 30 minutes, and the heart was quickly freezed. The amount of ATP in the heart muscle was extracted with perchloric acid and determined by HPLC. Nicorandil was used as a control.
The recovery rate of the cardiac function (heart rate × left ventricular pressure) after onset of reperfusion was calculated based on the cardiac function prior to the perfusion of the compound (13) and nicorandil as 100%. The amount of ATP in the heart muscle was also determined.

In the next test the test system is beagles. The test can be described thus: Hemodynamic profile in beagles (intravenously). Format: in vivo. The settings on record: peak percent change from pretreatment. The protocol: Hemodynamic profile of the compound of the present invention was investigated in beagles anesthetized with pentobarbital (30 mg/kg, intravenously) [test compound: N-cyano-N′-(2-nitroxyethyl)-3-pyridinecarboximidamide (compound (13))]. The thorax was opened under artificial respiration. After administering heparin in an amount of 500 units/kg, a Moravitz's cannula was introduced into the coronary sinus via the right atrium. The coronary sinus outflow was returned to the right external jagular vein. The coronary sinus outflow was measured by an electromagnetic flowmeter (MFU-2100, manufactured by Nihon Kohden) connected to the Moravitz's cannula. A cannula was inserted into the aortic arch through the subclavian artery to measure aortic blood pressure. The aortic blood pressure was measured with a pressure transducer (Nihon Kohden, TP-200T). Heart rate was monitored with a heart rate counter with R waves of electrocardiogram. All parameters were recorded on a thermosensitive recorder (WT-685G, manufactured by Nihon Kohden).
The compound was administered through the cannula inserted into the right femoral vein. Nicorandil was used as a control. As for respective measurement items, peak changes were expressed as percent change from the pretreatment values of the compound (13) or nicorandil.

For a further test, the system named is isolated rat heart. In words: Effect on isolated rat heart (Langendorff's method). To be noted: 1 × 10⁻⁸ mol/min, mean ± S.D. Here is the method: The effect of the compound of the present invention on heart of rats was examined by using the Langendorff's method [test compound: N-cyano-N′-(2-nitroxyethyl)-3-pyridinecarboximidamide (compound (13))]. Hearts were excised from male rats (weighing 250-350 g) and perfused at 80 cmH₂O in a Langendorff fashion. Krebs-Hensaleit bicarbonate solution (pH 7.4, 37°C) containing an 11 mM glucose which was oxygenated with 95% O₂- 5% CO₂ gas mixture was used as a perfusate. The left ventricular pressure was recorded by inserting a latex baloon into the left ventricle, and heart rate was determined from the pulse of it. Coronary perfusate flow was also measured with an electromagnetic flowmeter. The experiments were carried out by perfusing a perfusate containing the compound (13) for 10 minutes after an initial equilibration period for 30 minutes. As the control compound, nicorandil which has an effect opening potassium channel and is similar to the test compound in structure was used. The changes in the coronary perfusate flow and the cardiac function (heart rate × left ventricular pressure) caused by these compounds were expressed as percent changes from the preperfusion values of the compound (13) or nicorandil.

For the compound `N#CNC(=NCCc1ccccc1)c1cnc2ccccc2c1` [(60), N-cyano-N′-(2-phenylethyl)-3-quinolinecarboximidamide], in the test with isolated rat aortae [1], the IC50 came out at 6.1 µM.

With `N#CNC(=NCCO[N+](=O)[O-])c1cnccn1` [(61), N-cyano-N′-(2-nitroxyethyl)pyrazinecarboximidamide], in the test on isolated rat aortae [1], the IC50 was determined as 53 µM.

As to `N#CNC(=NCCO[N+](=O)[O-])c1ccccn1` [Compound (1), N-cyano-N'-(2-nitroxyethyl)-2-pyridinecarboximidamide], the ED20 in test [2] is 0.037 mg/kg. Also, the IC50 with isolated rat aortae [3] was determined as 4.6 µM.

Regarding `N#CNC(=NCCc1ccccc1)c1ccco1` [(63), N-cyano-N′-(2-phenylethyl)-2-furancarboximidamide], in the test with isolated rat aortae [1], the IC50 was 18 µM.

For the compound `N#CNC(=NCCc1ccccc1Cl)c1cccnc1` [(29), N-cyano-N'-[2-(2-chlorophenyl)ethyl]-3-pyridinecarboximidamide], the ED20 in test [2] came to 0.013 mg/kg. In addition, the IC50 with isolated rat aortae [3] was determined as 38 µM.

`N#CNC(=NCc1ccccc1)c1cccnc1` [(17), N-cyano-N'-benzyl-3-pyridinecarboximidamide]: the “Increment of Efflux (%)” value with potassium channel turned out to be 135.41%. Also, in test [2], the ED20 was determined as 0.25 mg/kg. In the test with isolated rat aortae [3], the IC50 turned out to be 66 µM.

For `N#CNC(=NCCc1ccccc1)c1ccoc1` [(65), N-cyano-N′-(2-phenylethyl)-3-furancarboximidamide], the IC50 in the test on isolated rat aortae [1] was 94 µM.

Consider `N#CNC(=NCCc1ccccc1)c1cccs1` [(67), N-cyano-N′-(2-phenylethyl)-2-thiophenecarboximidamide], for which the IC50 with isolated rat aortae [1] stood at 19 µM.

With `N#CNC(=NCCO[N+](=O)[O-])c1cnc2ccccc2c1` [Compound (59), N-cyano-N′-(2-nitroxyethyl)-3-quinolinecarboximidamide], the IC50 with isolated rat aortae [1] was 24 µM.

For `N#CNC(=NCCO[N+](=O)[O-])c1ccoc1` [(64), N-cyano-N′-(2-nitroxyethyl)-3-furancarboximidamide], the IC50 in the test on isolated rat aortae [1] stood at 8 µM.

For `CSC(=NC#N)NCCO[N+](=O)[O-]` [(70), 3-Cyano-2-methyl-1-(2-nitroxyethyl)-isothiourea], the IC50 with isolated rat aortae [1] came out at 4.3 µM.

For the compound `N#CNC(=NCCc1ccccc1)c1ccc(C#N)cc1` [(69), N-cyano-N′-(2-phenylethyl)-4-cyanobenzenecarboximidamide], the IC50 in the test with isolated rat aortae [1] was 40 µM.

On to `N#CNC(=NCCO[N+](=O)[O-])c1ccco1` [(62), N-cyano-N′-(2-nitroxyethyl)-2-furancarboximidamide], for which, in test [4], the ED20 is 0.025 mg/kg. The IC50 in the test on isolated rat aortae [1] turned out to be 26 µM.

As to `N#CNC(=NCCO[N+](=O)[O-])c1cccs1` [(66), N-cyano-N′-(2-nitroxyethyl)-2-thiophenecarboximidamide], the ED20 in test [4] was 0.115 mg/kg. The IC50 in the test with isolated rat aortae [1] was determined as 9.6 µM.

For the compound `N#CNC(=NCCc1ccccc1)c1cccnc1` [(27), N-cyano-N'-(2-phenylethyl)-3-pyridinecarboximidamide], the “Increment of Efflux (%)” value in the test on potassium channel came out at 206.61%. In test [2], the ED20 was found to be 0.074 mg/kg. Besides, the IC50 in the test with isolated rat aortae [3] was 40 µM.

As to `N#CNC(=NCCc1ccccc1)c1ccsc1` [(68), N-cyano-N′-(2-phenylethyl)-3-thiophenecarboximidamide], the IC50 in the test on isolated rat aortae [1] worked out at 92 µM.

On to `N#CNC(=NCCO[N+](=O)[O-])c1ccncc1` [(41), N-cyano-N'-(2-nitroxyethyl)-4-pyridinecarboximidamide], for which the “Increment of Efflux (%)” value in the test on potassium channel turned out to be 126.88%. In addition, the ED20 in test [2] amounted to 0.13 mg/kg. Also, the IC50 in the test with isolated rat aortae [3] came to 12 µM.

In the case of `O=C(NCCO[N+](=O)[O-])c1cccnc1` [Nicorandil, nicorandil, reference compound], the “Amount of ATP in the heart muscle (µmole/g of dry weight)” value with isolated heart of rats is reported as 5.93±0.49 (4) µmole/g of dry weight. In the test on beagles (i.v. 100.0 µg/kg), the “Coronary Blood Flow” value came out at 20.3±5.1%, the “Heart Rate” value came out at 0.2±2.1% and the “Mean Aortic Blood Pressure” value is given as -21.3±1.9%. In addition, in the test with beagles (i.v. 300.0 µg/kg), the “Coronary Blood Flow” value was 84.9±10.8%, the “Heart Rate” value is given as -20.7±1.9% and the “Mean Aortic Blood Pressure” value is -43.1±5.4%. Further, in the test with isolated rat heart (perfusion 10 minutes), the “Coronary Perfusate Flow (% change)” value is 3.3±5.6 % change. Also, in the test with isolated rat heart (heart rate × left ventricular pressure, percent change from preperfusion), the “Cardiac Function” value worked out at 3.7±6.7%.
